In publication PMC6394493 (Cancer Chemotherapy and Pharmacology, 2018):

Test: Safety assessment: adverse events
Assay type: in vivo, Japanese patients
Conditions: for Blood alkaline phosphatase increased, All grades / Blood alkaline phosphatase increased, Grade ¾ / Cancer pain, All grades / Cancer pain, Grade ¾ / Decreased appetite, All grades / Decreased appetite, Grade ¾ / Diarrhea, All grades / Diarrhea, Grade ¾ / Dysgeusia, All grades / Dysgeusia, Grade ¾ / Fatigue, All grades / Fatigue, Grade ¾ / Leukopenia, All grades / Leukopenia, Grade ¾ / Lymphopenia, All grades / Lymphopenia, Grade ¾ / Nausea, All grades / Nausea, Grade ¾ / Neutropenia, All grades / Neutropenia, Grade ¾ / Pyrexia, All grades / Pyrexia, Grade ¾ / Rash, All grades / Rash, Grade ¾ / Stomatitis, All grades / Stomatitis, Grade ¾ / Thrombocytopenia, All grades / Thrombocytopenia, Grade ¾ / Vomiting, All grades / Vomiting, Grade ¾ / AEs Total, All grades / AEs Total, Grade ¾ / Alanine aminotransferase increased, All grades / Alanine aminotransferase increased, Grade ¾: regardless of study drug relationship
Text: Safety assessments consisted of monitoring and recording of all AEs, including laboratory abnormalities and vital signs. DLTs were defined as an AE or a laboratory abnormality assessed as related to the study drug and occurring within the first 28 days of treatment (Cycle 1), as defined in Supplemental Table S1.

Question: What does the source list for `Cn1c(=O)n(-c2ccc(C(C)(C)C#N)cc2)c2c3cc(-c4cnc5ccccc5c4)ccc3ncc21` [BEZ235]?
Answer: Blood alkaline phosphatase increased, All grades (qd 1000 mg (n = 8)): 2 (25.0) n (%); Blood alkaline phosphatase increased, Grade ¾ (qd 1000 mg (n = 8)): 0 n (%); Cancer pain, All grades (qd 1000 mg (n = 8)): 2 (25.0) n (%); Cancer pain, Grade ¾ (qd 1000 mg (n = 8)): 0 n (%); Decreased appetite, All grades (qd 1000 mg (n = 8)): 7 (87.5) n (%); Decreased appetite, Grade ¾ (qd 1000 mg (n = 8)): 0 n (%); Diarrhea, All grades (qd 1000 mg (n = 8)): 7 (87.5) n (%); Diarrhea, Grade ¾ (qd 1000 mg (n = 8)): 0 n (%); Dysgeusia, All grades (qd 1000 mg (n = 8)): 2 (25.0) n (%); Dysgeusia, Grade ¾ (qd 1000 mg (n = 8)): 0 n (%); Fatigue, All grades (qd 1000 mg (n = 8)): 6 (75.0) n (%); Fatigue, Grade ¾ (qd 1000 mg (n = 8)): 1 (12.5) n (%); Leukopenia, All grades (qd 1000 mg (n = 8)): 2 (25.0) n (%); Leukopenia, Grade ¾ (qd 1000 mg (n = 8)): 1 (12.5) n (%); Lymphopenia, All grades (qd 1000 mg (n = 8)): 2 (25.0) n (%); Lymphopenia, Grade ¾ (qd 1000 mg (n = 8)): 2 (25.0) n (%); Nausea, All grades (qd 1000 mg (n = 8)): 7 (87.5) n (%); Nausea, Grade ¾ (qd 1000 mg (n = 8)): 0 n (%); Neutropenia, All grades (qd 1000 mg (n = 8)): 1 (12.5) n (%); Neutropenia, Grade ¾ (qd 1000 mg (n = 8)): 1 (12.5) n (%); Pyrexia, All grades (qd 1000 mg (n = 8)): 2 (25.0) n (%); Pyrexia, Grade ¾ (qd 1000 mg (n = 8)): 0 n (%); Rash, All grades (qd 1000 mg (n = 8)): 5 (62.5) n (%); Rash, Grade ¾ (qd 1000 mg (n = 8)): 1 (12.5) n (%); Stomatitis, All grades (qd 1000 mg (n = 8)): 3 (37.5) n (%); Stomatitis, Grade ¾ (qd 1000 mg (n = 8)): 0 n (%); Thrombocytopenia, All grades (qd 1000 mg (n = 8)): 4 (50.0) n (%); Thrombocytopenia, Grade ¾ (qd 1000 mg (n = 8)): 0 n (%); Vomiting, All grades (qd 1000 mg (n = 8)): 4 (50.0) n (%); Vomiting, Grade ¾ (qd 1000 mg (n = 8)): 0 n (%); AEs Total, All grades (qd 1200 mg (n = 6)): 6 (100.0) n (%); AEs Total, Grade ¾ (qd 1200 mg (n = 6)): 6 (100.0) n (%); Alanine aminotransferase increased, All grades (qd 1200 mg (n = 6)): 1 (16.7) n (%); Alanine aminotransferase increased, Grade ¾ (qd 1200 mg (n = 6)): 0 n (%); Blood alkaline phosphatase increased, All grades (qd 1200 mg (n = 6)): 1 (16.7) n (%); Blood alkaline phosphatase increased, Grade ¾ (qd 1200 mg (n = 6)): 1 (16.7) n (%); Cancer pain, All grades (qd 1200 mg (n = 6)): 1 (16.7) n (%); Cancer pain, Grade ¾ (qd 1200 mg (n = 6)): 0 n (%); Decreased appetite, All grades (qd 1200 mg (n = 6)): 6 (100.0) n (%); Decreased appetite, Grade ¾ (qd 1200 mg (n = 6)): 1 (16.7) n (%); Diarrhea, All grades (qd 1200 mg (n = 6)): 6 (100.0) n (%); Diarrhea, Grade ¾ (qd 1200 mg (n = 6)): 0 n (%); Dysgeusia, All grades (qd 1200 mg (n = 6)): 3 (50.0) n (%); Dysgeusia, Grade ¾ (qd 1200 mg (n = 6)): 0 n (%); Fatigue, All grades (qd 1200 mg (n = 6)): 4 (66.7) n (%); Fatigue, Grade ¾ (qd 1200 mg (n = 6)): 2 (33.3) n (%); Leukopenia, All grades (qd 1200 mg (n = 6)): 1 (16.7) n (%); Leukopenia, Grade ¾ (qd 1200 mg (n = 6)): 0 n (%); Lymphopenia, All grades (qd 1200 mg (n = 6)): 1 (16.7) n (%); Lymphopenia, Grade ¾ (qd 1200 mg (n = 6)): 1 (16.7) n (%); Nausea, All grades (qd 1200 mg (n = 6)): 5 (83.3) n (%); Nausea, Grade ¾ (qd 1200 mg (n = 6)): 0 n (%); Neutropenia, All grades (qd 1200 mg (n = 6)): 2 (33.3) n (%); Neutropenia, Grade ¾ (qd 1200 mg (n = 6)): 0 n (%); Pyrexia, All grades (qd 1200 mg (n = 6)): 2 (33.3) n (%); Pyrexia, Grade ¾ (qd 1200 mg (n = 6)): 0 n (%); Rash, All grades (qd 1200 mg (n = 6)): 1 (16.7) n (%); Rash, Grade ¾ (qd 1200 mg (n = 6)): 1 (16.7) n (%); Stomatitis, All grades (qd 1200 mg (n = 6)): 6 (100.0) n (%); Stomatitis, Grade ¾ (qd 1200 mg (n = 6)): 1 (16.7) n (%); Thrombocytopenia, All grades (qd 1200 mg (n = 6)): 0 n (%); Thrombocytopenia, Grade ¾ (qd 1200 mg (n = 6)): 0 n (%); Vomiting, All grades (qd 1200 mg (n = 6)): 5 (83.3) n (%); Vomiting, Grade ¾ (qd 1200 mg (n = 6)): 0 n (%); AEs Total, All grades (qd 1400 mg (n = 7)): 7 (100.0) n (%); AEs Total, Grade ¾ (qd 1400 mg (n = 7)): 5 (71.4) n (%); Alanine aminotransferase increased, All grades (qd 1400 mg (n = 7)): 3 (42.9) n (%); Alanine aminotransferase increased, Grade ¾ (qd 1400 mg (n = 7)): 1 (14.3) n (%); Blood alkaline phosphatase increased, All grades (qd 1400 mg (n = 7)): 2 (28.6) n (%); Blood alkaline phosphatase increased, Grade ¾ (qd 1400 mg (n = 7)): 1 (14.3) n (%); Cancer pain, All grades (qd 1400 mg (n = 7)): 0 n (%); Cancer pain, Grade ¾ (qd 1400 mg (n = 7)): 0 n (%); Decreased appetite, All grades (qd 1400 mg (n = 7)): 6 (85.7) n (%); Decreased appetite, Grade ¾ (qd 1400 mg (n = 7)): 0 n (%); Diarrhea, All grades (qd 1400 mg (n = 7)): 7 (100.0) n (%); Diarrhea, Grade ¾ (qd 1400 mg (n = 7)): 1 (14.3) n (%); Dysgeusia, All grades (qd 1400 mg (n = 7)): 2 (28.6) n (%); Dysgeusia, Grade ¾ (qd 1400 mg (n = 7)): 0 n (%); Fatigue, All grades (qd 1400 mg (n = 7)): 4 (57.1) n (%); Fatigue, Grade ¾ (qd 1400 mg (n = 7)): 0 n (%); Leukopenia, All grades (qd 1400 mg (n = 7)): 2 (28.6) n (%); Leukopenia, Grade ¾ (qd 1400 mg (n = 7)): 1 (14.3) n (%); Lymphopenia, All grades (qd 1400 mg (n = 7)): 4 (57.1) n (%); Lymphopenia, Grade ¾ (qd 1400 mg (n = 7)): 1 (14.3) n (%); Nausea, All grades (qd 1400 mg (n = 7)): 6 (85.7) n (%); Nausea, Grade ¾ (qd 1400 mg (n = 7)): 0 n (%); Neutropenia, All grades (qd 1400 mg (n = 7)): 4 (57.1) n (%); Neutropenia, Grade ¾ (qd 1400 mg (n = 7)): 3 (42.9) n (%); Pyrexia, All grades (qd 1400 mg (n = 7)): 0 n (%); Pyrexia, Grade ¾ (qd 1400 mg (n = 7)): 0 n (%); Rash, All grades (qd 1400 mg (n = 7)): 4 (57.1) n (%); Rash, Grade ¾ (qd 1400 mg (n = 7)): 0 n (%); Stomatitis, All grades (qd 1400 mg (n = 7)): 5 (71.4) n (%); Stomatitis, Grade ¾ (qd 1400 mg (n = 7)): 0 n (%); Thrombocytopenia, All grades (qd 1400 mg (n = 7)): 3 (42.9) n (%); Vomiting, All grades (qd 1400 mg (n = 7)): 5 (71.4) n (%); Vomiting, Grade ¾ (qd 1400 mg (n = 7)): 0 n (%); AEs Total, All grades (qd All patients (N = 27)): 27 (100.0) n (%); AEs Total, Grade ¾ (qd All patients (N = 27)): 18 (66.7) n (%); Alanine aminotransferase increased, All grades (qd All patients (N = 27)): 6 (22.2) n (%); Alanine aminotransferase increased, Grade ¾ (qd All patients (N = 27)): 1 (3.7) n (%); Blood alkaline phosphatase increased, All grades (qd All patients (N = 27)): 6 (22.2) n (%); Blood alkaline phosphatase increased, Grade ¾ (qd All patients (N = 27)): 2 (7.4) n (%); Cancer pain, All grades (qd All patients (N = 27)): 7 (25.9) n (%); Cancer pain, Grade ¾ (qd All patients (N = 27)): 1 (3.7) n (%); Decreased appetite, All grades (qd All patients (N = 27)): 24 (88.9) n (%); Decreased appetite, Grade ¾ (qd All patients (N = 27)): 1 (3.7) n (%); Diarrhea, All grades (qd All patients (N = 27)): 25 (92.6) n (%); Diarrhea, Grade ¾ (qd All patients (N = 27)): 1 (3.7) n (%); Dysgeusia, All grades (qd All patients (N = 27)): 8 (29.6) n (%); Dysgeusia, Grade ¾ (qd All patients (N = 27)): 0 n (%); Fatigue, All grades (qd All patients (N = 27)): 17 (63.0) n (%); Fatigue, Grade ¾ (qd All patients (N = 27)): 3 (11.1) n (%); Leukopenia, All grades (qd All patients (N = 27)): 6 (22.2) n (%); Leukopenia, Grade ¾ (qd All patients (N = 27)): 2 (7.4) n (%); Lymphopenia, All grades (qd All patients (N = 27)): 10 (37.0) n (%); Lymphopenia, Grade ¾ (qd All patients (N = 27)): 7 (25.9) n (%); Nausea, All grades (qd All patients (N = 27)): 22 (81.5) n (%); Nausea, Grade ¾ (qd All patients (N = 27)): 0 n (%); Neutropenia, All grades (qd All patients (N = 27)): 8 (29.6) n (%); Neutropenia, Grade ¾ (qd All patients (N = 27)): 4 (14.8) n (%); Pyrexia, All grades (qd All patients (N = 27)): 6 (22.2) n (%); Pyrexia, Grade ¾ (qd All patients (N = 27)): 0 n (%); Rash, All grades (qd All patients (N = 27)): 11 (40.7) n (%); Rash, Grade ¾ (qd All patients (N = 27)): 2 (7.4) n (%); Stomatitis, All grades (qd All patients (N = 27)): 18 (66.7) n (%); Stomatitis, Grade ¾ (qd All patients (N = 27)): 1 (3.7) n (%); Thrombocytopenia, All grades (qd All patients (N = 27)): 8 (29.6) n (%); Thrombocytopenia, Grade ¾ (qd All patients (N = 27)): 3 (11.1) n (%); Vomiting, All grades (qd All patients (N = 27)): 17 (63.0) n (%); Vomiting, Grade ¾ (qd All patients (N = 27)): 0 n (%); patients with study drug-related serious adverse events (SAEs) (qd dosing group): two; patients with Grade 3 or 4 AEs (qd dosing, 18 patients): 66.7%; grade 3 or 4 lymphopenia suspected to be study drug-related (qd group, four patients): 14.8%; study drug discontinuation due to AEs (qd group, seven patients): 25.9%; grade 3 or 4 fatigue suspected to be study drug-related (qd group, three patients): 11.1%; grade 3 or 4 neutropenia suspected to be study drug-related (qd group, three patients): 11.1%; grade 3 or 4 rash suspected to be study drug-related (qd group, two patients): 7.4%; grade 3 or 4 thrombocytopenia suspected to be study drug-related (qd group, two patients): 7.4%
